Experiments:
[1] = test system: tau; test: Western blot of APP/PS1 mice brain homogenates, tau; type: in vivo, C57BL/6J-TgN(APP/PS1)ZLFILAS mice; conditions: 15-day treatment, 1 or 5 mg/kg ip
[2] = test system: SH-SY5Y cells; test: Neuroprotection assay against Aβ1–42, 7-AAD flow cytometry; type: cell-based, human; conditions: 5 μmol/L compound, 5 μmol/L fibrillar Aβ1–42, 48 h
Procedure: Cell culture and treatments The human neuroblastoma SH-SY5Y cell line was purchased from American Type Culture Collection (Manassas, VA, USA). Cells were cultured in Advanced Dulbecco’s modified Eagle’s medium (Gibco, Thermo Fisher Scientific, Waltham, MA, USA) supplemented with 10% fetal bovine serum (FBS, Gibco), 2 mmol/L L-glutamine, 50 U/mL penicillin and 50 μg/mL streptomycin (Sigma, St. Louis, MO, USA) in a humidified atmosphere of 95% air and 5% CO2 at 37 °C, and grown to 80% confluence. Prior to cell treatment, complete medium was replaced with serum-reduced medium (i.e., with 2% FBS). Compounds were prepared as a stock solution of 50 mmol/L in DMSO.
Neuroprotection assay The neuroprotective effect of compounds on cytotoxic effect of Aβ1–42 was determined with the fluorescent intercalator 7-aminoactinomycin D (7-AAD) assessed by flow cytometry. Prior to cell treatment, the peptide Aβ1–42 (Merck Millipore, Darmstadt, Germany) was dissolved in DMSO at a concentration of 1 mmol/L and was incubated at 100 μmol/L in 1 mol/L HCl at 37 °C for 24 h to induce Aβ aggregation. […] Cells were then analysed for cytotoxicity by flow cytometry on Attune NxT flow cytometer (Thermo Fisher Scientific). The percentage of 7AAD positive (7AADpos) cells was evaluated using FlowJo software (FlowJo, LLC., Ashland, OR, USA).

[3] = biological target: hBChE (Homo sapiens, UniProt P06276); test: ChE IC50 determination, method of Ellman, hBChE; type: biochemical
Chain of hBChE (P06276 29-602): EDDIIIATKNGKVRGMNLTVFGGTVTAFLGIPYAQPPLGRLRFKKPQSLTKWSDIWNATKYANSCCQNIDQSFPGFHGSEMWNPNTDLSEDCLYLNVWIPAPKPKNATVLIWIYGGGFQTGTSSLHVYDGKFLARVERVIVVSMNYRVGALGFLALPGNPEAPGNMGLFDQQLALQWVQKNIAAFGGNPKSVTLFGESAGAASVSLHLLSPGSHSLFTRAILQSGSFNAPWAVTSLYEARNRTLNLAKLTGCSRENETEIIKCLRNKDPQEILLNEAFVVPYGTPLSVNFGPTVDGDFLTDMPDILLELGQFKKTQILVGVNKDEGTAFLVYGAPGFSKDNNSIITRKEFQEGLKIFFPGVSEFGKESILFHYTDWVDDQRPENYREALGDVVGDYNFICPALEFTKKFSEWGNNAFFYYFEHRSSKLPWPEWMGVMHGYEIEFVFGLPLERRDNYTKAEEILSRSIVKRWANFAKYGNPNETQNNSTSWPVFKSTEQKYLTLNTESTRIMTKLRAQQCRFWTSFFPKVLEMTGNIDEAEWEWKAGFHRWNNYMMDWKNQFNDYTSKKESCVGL
Procedure: The inhibitory potencies of the compounds against the ChEs were determined using the method of Ellman following the procedure described previously. Briefly, compound stock solutions in DMSO were incubated with Ellman’s reagent and ChEs (final concentrations: 370 μmol/L Ellman’s reagent, approximately 1 nmol/L or 50 pmol/L hBChE or hAChE, respectively) in 0.1 mol/L sodium phosphate pH 8.0 for 5 min at 20 °C. For time-dependency measurements, the pre-incubation time was varied (1, 5, 15, 30 or 60 min). The reactions were started by the addition of the substrate (final concentration, 500 μmol/L butyrylthiocholine iodide or acetylthiocholine iodide for hBChE and hAChE, respectively). The final content of DMSO was always 1%. The increase in absorbance at 412 nm was monitored for 2 min using a 96-well microplate reader (Synergy HT, BioTek Instruments, VT, USA). The initial velocities in the presence (vi) and absence (v0) of the test compounds were calculated. The inhibitory potencies were expressed as the residual activities, according to Eq. (1):(1) RA = vi / v0
For IC50 determinations, at least seven different concentrations for each compound were used. The IC50 values were obtained by plotting the residual ChE activities against the applied inhibitor concentrations, with the experimental data fitted to a four-parameter logistic function (GraphPad Prism 9.4). Tacrine and donepezil were used as positive controls.

[4] = test system: ICR mice icv-injected with Aβ1–42; test: Y maze spontaneous alternation, mice model with icv-injection of Aβ1–42; type: in vivo; conditions: ip, once a day
Procedure: Mice model with icv-injection of Aβ1–42 The experiments were performed using ICR male mice (8–10 weeks old, weight 18–20 g), which were purchased from Shanghai Bikai Animal Breeding Factory (Shanghai, China). Animals were housed in cages (6 mice per cage) at a constant temperature of 25±2 °C, humidity of 55%±10% and a light/dark (12:12) cycle. The mice had unlimited access to food and water prior to the experiment. Specified conditions for the maintenance of mice were ensured throughout the experiments, including tree bedding (Yizheng Anlimao Biotechnology Co., Ltd., China) and lab feed (Zimao, China). For behavioural tests, mice were selected randomly, each group consisted of 6 mice. The experiments were performed between 9 am and 3 pm.
According to the literature procedure, recombinant human hexafluoroisopropanol-pretreated Aβ1–42 from Merck Millipore (Darmstadt, Germany) was dissolved in 1% DMSO, diluted with saline to the final concentration of 2 mg/mL, and incubated for 72 h to form oligomers. […]
Spontaneous alternation (Y maze) test was used to assess working memory in mice. […] The experimental data recorded the number of times the animal entered the three arms in a row. […] The behavior of mice in the Y maze was recorded by Xeye Aba and processed by GraphPad Prism 5.

SMILES: CCN(CC)C(=O)n1cnc(C2(CC)Cc3ccccc3C2)c1 [Compound 8, N,N-Diethyl-4-(2-ethylindan-2-yl)-1H-imidazole-1-carboxamide]
- tau hyperphosphorylation in whole brain homogenates [1]: significantly lowered tau hyperphosphorylation
- 7-AAD-positive cells after Aβ1–42 treatment [2]: significant reduction
- IC50 ([3]; after 5 min preincubation, read-out: hBChE IC50±SD): 1520 ± 90 nM
- hBChE time-dependency observed: Yes/No ([3]; pre-incubation time varied): Yes
- spontaneous alternation in the Y maze task [4]: increased spontaneous alternation
